The values that follow come from PubChem BioAssay (NCI).

Among the test systems are SK-OV-3 ovarian; HOP-62 NSCLC; HOP-92 NSCLC; 786-0 renal; OVCAR-5 ovarian; TK-10 renal; COLO 205 colon; IGROV1 ovarian; SNB-19 CNS; HL-60(TB) leukemia.
Test in all cases: growth of human tumour cells (NCI), 48 h

Molecules are shown by their SMILES.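 In this assay, cells in 96-well plates receive the compound at five concentrations for 48 hours. Endpoints are linearly interpolated between the surrounding concentrations. GI50 is the concentration that inhibits growth by half. At the TGI there is no net growth.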

Consider `O=C1C(c2c[nH]c3ccccc23)=C(c2c[nH]c3ccccc23)C(=O)N1O`, for which the GI50 was over 25 µM with SK-OV-3 ovarian; over 25 µM with HOP-62 NSCLC; 2.89 µM in the experiment with HOP-92 NSCLC; over 25 µM with 786-0 renal; over 25 µM in the experiment on OVCAR-5 ovarian; over 25 µM with TK-10 renal. Further, the GI50 in the experiment on COLO 205 colon, with IGROV1 ovarian, with SNB-19 CNS and in the experiment on HL-60(TB) leukemia was over 25 µM throughout. Moreover, the TGI is over 25 µM with SK-OV-3 ovarian; over 25 µM with HOP-62 NSCLC; 21.7 µM with HOP-92 NSCLC; over 25 µM with 786-0 renal; over 25 µM in the experiment with OVCAR-5 ovarian; over 25 µM in the experiment on TK-10 renal. The TGI in the experiment with COLO 205 colon, in the experiment with IGROV1 ovarian, in the experiment with SNB-19 CNS and in the experiment on HL-60(TB) leukemia was over 25 µM throughout.

For `COc1ccc(-c2cc(=O)c3c(C)cc(C)nc3[nH]2)cc1`, the TGI in the experiment on SK-OV-3 ovarian is over 100 µM; with HOP-62 NSCLC it was over 100 µM; in the experiment on HOP-92 NSCLC it was over 100 µM; in the experiment on 786-0 renal, over 100 µM; with OVCAR-5 ovarian, over 100 µM; in the experiment on TK-10 renal it was 99.2 µM. The TGI was 42.6 µM in the experiment with COLO 205 colon, 84.8 µM with IGROV1 ovarian, over 100 µM with SNB-19 CNS and 35.4 µM in the experiment on HL-60(TB) leukemia. For the same molecule, the GI50 in the experiment on 786-0 renal is 58.8 µM.

Turning to `O=C(c1ccc(Cl)cc1)c1ccc(OCCCCCCCCCCOc2ccc(C(=O)c3ccc(Cl)cc3)cc2)cc1`, the TGI in the experiment on SK-OV-3 ovarian, with HOP-62 NSCLC, in the experiment with HOP-92 NSCLC, in the experiment on 786-0 renal, with OVCAR-5 ovarian and in the experiment with TK-10 renal was over 100 µM each time. In addition, the TGI in the experiment on COLO 205 colon, with IGROV1 ovarian, in the experiment on SNB-19 CNS and with HL-60(TB) leukemia was over 100 µM in each case.

Consider `C=C(CCCCCCCCC)CC(=O)SCCNC(=O)CCNC(=O)C(O)C(C)(C)COP(=O)(O)OP(=O)(O)OCC1OC(n2cnc3c(N)ncnc32)C(O)C1OP(=O)(O)O` (stereo not given), for which the TGI in the experiment on SK-OV-3 ovarian is over 100 µM; with HOP-62 NSCLC it was over 85.7 µM; with HOP-92 NSCLC, over 100 µM; in the experiment with 786-0 renal it was over 100 µM; in the experiment on OVCAR-5 ovarian, over 100 µM; in the experiment with TK-10 renal, over 100 µM. In addition, the TGI was over 100 µM with COLO 205 colon, over 100 µM with IGROV1 ovarian, over 100 µM in the experiment on SNB-19 CNS and over 90.9 µM with HL-60(TB) leukemia.

For `Cc1ccc(/C(=N\N=C(N)N)c2ccccc2)cc1`, the GI50 with SK-OV-3 ovarian was 0.42 µM; with HOP-62 NSCLC, 0.672 µM; in the experiment with HOP-92 NSCLC it was 1.68 µM; with 786-0 renal it was 0.594 µM; in the experiment with OVCAR-5 ovarian, 0.83 µM; with TK-10 renal, 0.549 µM. Also, the GI50 in the experiment with COLO 205 colon is 0.282 µM; in the experiment with IGROV1 ovarian it was 0.459 µM; in the experiment on SNB-19 CNS it was 0.455 µM; in the experiment with HL-60(TB) leukemia it was 0.318 µM. Moreover, the TGI with SK-OV-3 ovarian amounted to 10.4 µM; with HOP-62 NSCLC it was 14.3 µM; with HOP-92 NSCLC it was 20.2 µM; in the experiment on 786-0 renal it was 12.1 µM; with OVCAR-5 ovarian, 18.3 µM; with TK-10 renal, 15.1 µM. Moreover, the TGI was 0.714 µM with COLO 205 colon, 31.4 µM in the experiment on IGROV1 ovarian, 13.1 µM in the experiment on SNB-19 CNS and over 36.2 µM in the experiment with HL-60(TB) leukemia.

With `CCC(=O)O[C@H]1CC[C@H]2[C@@H]3CC[C@H]4CC(=O)[C@H](C)C[C@]4(C)[C@H]3CC[C@]12C`, the GI50 in the experiment on SK-OV-3 ovarian is over 81.7 µM; with HOP-62 NSCLC it was 37.7 µM; with 786-0 renal, 43.3 µM; in the experiment with OVCAR-5 ovarian it was 74.8 µM; in the experiment on TK-10 renal, 43.7 µM; in the experiment with COLO 205 colon it was 28.3 µM. For the same molecule, the GI50 with IGROV1 ovarian was over 60.5 µM; with SNB-19 CNS, over 100 µM; in the experiment with HL-60(TB) leukemia it was 5.57 µM. The TGI was over 100 µM with SK-OV-3 ovarian; over 100 µM with HOP-62 NSCLC; 63 µM with HOP-92 NSCLC; over 100 µM with 786-0 renal; over 100 µM with OVCAR-5 ovarian; over 100 µM in the experiment on TK-10 renal. For the same molecule, the TGI in the experiment with COLO 205 colon was over 100 µM; in the experiment on IGROV1 ovarian, over 100 µM; with SNB-19 CNS, over 100 µM; in the experiment with HL-60(TB) leukemia, 24.3 µM.

On to `CCOC(=O)C1(Br)C(c2ccccc2)NC(=O)NC1(C)Br` (stereo not given), for which the TGI in the experiment with SK-OV-3 ovarian was over 100 µM; in the experiment on HOP-62 NSCLC it was over 100 µM; with HOP-92 NSCLC it was over 93.5 µM; in the experiment on 786-0 renal it was over 100 µM; with OVCAR-5 ovarian it was over 100 µM; in the experiment with TK-10 renal, over 100 µM. Besides, the TGI in the experiment with COLO 205 colon was over 100 µM; in the experiment with IGROV1 ovarian, over 100 µM; in the experiment on SNB-19 CNS it was over 66 µM; with HL-60(TB) leukemia, 46.4 µM.

On to `CCc1n(Cc2ccc3ccccc3n2)cc[n+]1Cc1ccc2ccccc2n1`, for which the GI50 in the experiment on SK-OV-3 ovarian was 1.39 µM; in the experiment with HOP-62 NSCLC, 4.66 µM; in the experiment with HOP-92 NSCLC, 0.0183 µM; with 786-0 renal, 31.2 µM; in the experiment on OVCAR-5 ovarian, 1.48 µM; in the experiment on TK-10 renal, 5.5 µM. Besides, the GI50 with COLO 205 colon was 0.0596 µM; in the experiment on IGROV1 ovarian it was 0.214 µM; with SNB-19 CNS it was 0.0687 µM; in the experiment on HL-60(TB) leukemia, 0.0329 µM. Further, the TGI in the experiment with SK-OV-3 ovarian was 15.1 µM; in the experiment with HOP-62 NSCLC it was 31.5 µM; with HOP-92 NSCLC it was 0.521 µM; in the experiment with 786-0 renal it was over 100 µM; with OVCAR-5 ovarian, 22.9 µM; with TK-10 renal, 26.3 µM. Also, the TGI in the experiment with COLO 205 colon stood at 0.705 µM; with IGROV1 ovarian, 16.7 µM; with SNB-19 CNS, 10.7 µM; in the experiment with HL-60(TB) leukemia it was 0.262 µM.

For the molecule `CCN(CC)CCNc1ccc([N+](=O)[O-])c2sc3ccccc3c(=O)c12`, the GI50 in the experiment with SK-OV-3 ovarian is 2.08 µM; in the experiment on HOP-62 NSCLC, 1.27 µM; in the experiment with HOP-92 NSCLC, 1.26 µM; in the experiment on 786-0 renal, 0.958 µM; with OVCAR-5 ovarian, 3.47 µM; in the experiment on TK-10 renal it was 0.624 µM. Further, the GI50 with COLO 205 colon is 1.35 µM; with IGROV1 ovarian, 0.285 µM; in the experiment with SNB-19 CNS it was 2.22 µM; with HL-60(TB) leukemia, 0.783 µM. Moreover, the TGI with SK-OV-3 ovarian was determined as 6.3 µM; in the experiment with HOP-62 NSCLC, 3.64 µM; with HOP-92 NSCLC, 3.36 µM; in the experiment with 786-0 renal it was 2.35 µM; with OVCAR-5 ovarian it was 15.2 µM; with TK-10 renal, 2.24 µM. For the same molecule, the TGI stood at 3.58 µM in the experiment on COLO 205 colon, 1.02 µM in the experiment on IGROV1 ovarian, 13 µM in the experiment on SNB-19 CNS and 3.27 µM in the experiment on HL-60(TB) leukemia.
